Measurements taken from PubChem BioAssay (NCI).
Values joined by “and” are separate entries in the source; they are usually repeats but may differ in a detail not shown here. Equal entries are not always repeated.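 Following 48 hours of exposure in 96-well plates, responses at five concentrations were used to interpolate endpoints linearly. Abbreviation: GI50, concentration required for 50% inhibition of growth. TGI: total growth inhibition.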

Tests used:
Assay in all cases: NCI-60 cell line screen, 48 h
MDA-MB-231 breast = test system: MDA-MB-231 breast
HS 578T breast = test system: HS 578T breast
NCI-H522 lung = test system: NCI-H522 lung
K-562 leukemia = test system: K-562 leukemia
RPMI-8226 leukemia = test system: RPMI-8226 leukemia
OVCAR-8 ovarian = test system: OVCAR-8 ovarian
HCT-15 colon = test system: HCT-15 colon
SK-OV-3 ovarian = test system: SK-OV-3 ovarian
EKVX NSCLC = test system: EKVX NSCLC
DU-145 prostate = test system: DU-145 prostate

SMILES	GI50 (MDA-MB-231 breast) [µM]	TGI (MDA-MB-231 breast)	GI50 (HS 578T breast) [µM]	TGI (HS 578T breast) [µM]	GI50 (NCI-H522 lung) [nM]	TGI (NCI-H522 lung)	GI50 (K-562 leukemia) [nM]	TGI (K-562 leukemia)	GI50 (RPMI-8226 leukemia) [µM]	TGI (RPMI-8226 leukemia)	GI50 (OVCAR-8 ovarian) [µM]	TGI (OVCAR-8 ovarian)	GI50 (HCT-15 colon) [nM]	TGI (HCT-15 colon)	TGI (SK-OV-3 ovarian) [µM]	GI50 (EKVX NSCLC) [µM]	TGI (EKVX NSCLC) [µM]	TGI (DU-145 prostate) [µM]	GI50 (DU-145 prostate) [µM]	GI50 (SK-OV-3 ovarian) [µM]
O=[N+]([O-])c1ccc2c(N=Nc3c(O)ccc4ccccc34)c(O)cc(S(=O)(=O)O)c2c1	> 100	50 µM and > 100 µM	67.2	> 100	17400	50 µM and > 100 µM	25000	50 µM and > 100 µM	67.1	50 µM and > 100 µM	31.3	50 µM and > 100 µM	29900	50 µM and > 100 µM	50	39.4	> 100	> 100		
CCOC(=O)C12CC1(C(=O)OCC)C1CCC2C1 (stereo not given)								> 100 µM		> 100 µM		> 100 µM		> 100 µM	> 100					
Cc1ccc(NC(=O)C(=O)Cc2nc3ccccc3o2)c(C)c1								> 100 µM		> 100 µM		> 100 µM		> 100 µM	> 100		> 100			
COc1ccc(C(=O)C=C2NCCN2)cc1						> 100 µM		> 100 µM		> 100 µM		> 100 µM			> 100		> 100			
Cc1cc(C)nc(NS(=O)(=O)c2ccc(NC(=O)c3cccc4cc5ccccc5nc34)cc2)n1						54.3 µM		> 100 µM		85.7 µM		> 100 µM		58.5 µM	> 100		> 100			
O=C1C(c2ccccc2)=C(c2ccccc2)C(c2ccc(CCCCCCc3ccc(C4=C(c5ccccc5)C(=O)C(c5ccccc5)=C4c4ccccc4)cc3)cc2)=C1c1ccccc1						> 100 µM		> 100 µM		> 100 µM		> 100 µM		> 100 µM			> 100			
COc1ccc(NC(=O)C(=O)C2NC(=S)NC2=O)c(OC)c1 (stereo not given)								> 100 µM		> 100 µM		> 100 µM		> 100 µM	> 100		> 100			
Cn1ccnc1C(=O)/C=C/c1ccc(C(=O)Nc2nc3ccccc3[nH]2)cc1	3.05	13.1 µM	5.99	> 25	8540	> 25 µM	829	> 25 µM	0.81	> 25 µM	8.99	> 25 µM	864	> 25 µM		7.73	> 25	4.63	0.92	
FC(F)(F)c1ccc(-c2cnc(Br)nc2NC2CCCCCC2)cc1	12.3	> 100 µM	> 100	> 100	28300	> 100 µM	50400	> 100 µM	7.98	> 100 µM	> 100	> 100 µM	55200	> 100 µM	> 100			> 100	> 100	> 100
Cc1ccc(Nc2ccc(Nc3ccc(C)cc3)c3c2C(=O)c2c(O)ccc(O)c2C3=O)cc1						> 100 µM		> 100 µM		> 100 µM		> 100 µM		> 100 µM	> 100		> 100			
O=[N+]([O-])c1ccccc1C1N2CCCCC2[C@@H]2c3[nH]c4ccccc4c3CCN12 (stereo not given in full)								14 µM		61.3 µM		39.1 µM		29.4 µM	54.3		41.3			
Cc1nc(C(N)=S)sc1C(=O)/C=C/c1cccc(O)c1						> 100 µM		78.3 µM		> 100 µM		> 100 µM		> 100 µM	> 100		> 100			
COC(=O)C1=C(C(=O)OC)C2(C(=O)OC)OC1(OC)C(C1(C(=O)OC)C(C(=O)OC)=C1C(=O)OC)=C2C(=O)OC (stereo not given)						> 100 µM		> 100 µM		> 100 µM		> 100 µM		> 100 µM	> 100		> 100			
Fc1ccccc1C1CC(C(c2ccccc2)c2ccccc2)=Nc2ccccc2S1 (stereo not given)						21.7 µM		10.6 µM		25 µM		48.5 µM		30.8 µM	68.6		24.5			
COC(=O)C1(Cc2cccc(Cl)c2)CCCCCCN1C(=O)c1ccccc1 (stereo not given)		29 µM						59.8 µM		32.2 µM		33.4 µM		25.3 µM	42.8		26.8	37.7		
CC(=O)N1CC(F)(F)c2c(Sc3ncc(N4CCC5(CC4)COC[C@H]5N)nc3N)cccc21	17.3	41.5 µM	14.6	59.1			2110	20.7 µM	12.4	42.7 µM	35	> 100 µM	24000	96.8 µM	> 100	8.27	> 100	> 100	25.7	3.75
CCCCCCCCCC(=O)CC(=O)c1c(O)cccc1O						89.7 µM		86 µM		61.2 µM		> 100 µM			64.1		86.9			
CCN(CC)CCCNC(=O)Cc1ccccc1Nc1c(Cl)cccc1Cl								21.6 µM		29.1 µM		31.9 µM		29.1 µM	29.1		28.2			
C=C(C)C1/C=C(/C(C)C)CC[C@]2(C)O[C@@H]2CC[C@H](C)CC1=O (stereo not given in full)			31.7	> 100	> 100000	> 100 µM	33000	> 100 µM	15.5	34.4 µM	58.3	> 100 µM	> 100000	> 100 µM	> 100			> 100	49.6	> 100
C/C(=N\Nc1ccc([N+](=O)[O-])cc1)C(=O)N(C)Nc1ccccc1						> 100 µM		> 100 µM		> 100 µM		> 100 µM		> 100 µM	> 100		> 100			
CN(O)C(=O)Cc1ccccc1						> 100 µM		> 100 µM		> 100 µM		> 100 µM			> 100					
COC1=C(OC)CCC(/C(C#N)=C/c2ccc(OC)c(OC)c2)=C1						70.5 µM		> 100 µM		> 100 µM		> 100 µM		> 100 µM	91.3					

SMILES	GI50 (MDA-MB-231 breast) [µM]	TGI (MDA-MB-231 breast)	GI50 (HS 578T breast) [µM]	TGI (HS 578T breast) [µM]	GI50 (NCI-H522 lung) [nM]	TGI (NCI-H522 lung)	GI50 (K-562 leukemia) [nM]	TGI (K-562 leukemia)	GI50 (RPMI-8226 leukemia) [µM]	TGI (RPMI-8226 leukemia)	GI50 (OVCAR-8 ovarian) [µM]	TGI (OVCAR-8 ovarian)	GI50 (HCT-15 colon) [nM]	TGI (HCT-15 colon)	TGI (SK-OV-3 ovarian) [µM]	GI50 (EKVX NSCLC) [µM]	TGI (EKVX NSCLC) [µM]	TGI (DU-145 prostate) [µM]	GI50 (DU-145 prostate) [µM]	GI50 (SK-OV-3 ovarian) [µM]
COc1cc2c(cc1C)n(O)c(C)c(C(=O)C/C(=N/NC(=O)C[N+](C)(C)C)C(=O)Nc1cccc(Cl)c1C)[n+]2=O						> 100 µM		> 100 µM		> 100 µM		> 100 µM		> 100 µM			> 100			
COc1ccc2c(c1)CC[C@@H]1C2CC[C@]2(C)C(=O)NC(=O)CC12 (stereo not given in full)						> 100 µM		> 100 µM		> 100 µM		> 100 µM		> 100 µM	> 100		> 100			
Cc1cc(C)c(C(=O)OC(c2ccccc2)C(c2ccccc2)N2CCOCC2)c(C)c1 (stereo not given)						> 100 µM		> 100 µM		85.3 µM				> 100 µM	> 100		> 100			
COc1ccc(-c2ccc(-c3ccc(C(=N)N)cn3)s2)cc1Cl	1.62	3.23 µM	1.79	3.8	1950	4.46 µM					2.09	4.58 µM	1620	3.01 µM	3.41	1.75	3.41	3.06	1.69	1.65
CC(C)(C)CC(C)(C)c1ccc(OCCOCCSC(=N)N)cc1	1.34	2.94 µM	2.28	6.14	1710	3.18 µM	1510	3.58 µM			1.86	3.56 µM	1800	3.85 µM	7.39			3.34	1.84	2.74
O=[N+]([O-])c1ccc(Cl)c(C2SCc3nc4ccccc4n32)c1 (stereo not given)						> 100 µM		> 100 µM		> 100 µM		> 100 µM			88		> 100			
CCC1(CN(C)C)CC/C(=C\c2ccc3c(c2)OCO3)C1=O (stereo not given)						> 100 µM		> 100 µM		> 100 µM		> 100 µM		> 100 µM			> 100			
CCOC(=O)C(C)(C)Oc1ccc2c(-c3ccc(Cl)cc3)cc(=O)oc2c1								> 100 µM		> 100 µM		> 100 µM		> 100 µM			> 100			
CCOC(=O)C(C[Si](C)(C)C)P(=O)(OCC)OCC (stereo not given)						> 100 µM		> 100 µM		> 100 µM		> 100 µM		> 100 µM	> 100					
O=C1/C(=C/c2cccs2)CCC/C1=C\c1cccs1	44.6	> 100 µM	29.2	> 100	40100	> 100 µM	> 100000	> 100 µM	> 100	> 100 µM	51.6	> 100 µM	> 100000	> 100 µM	74.2			> 100	46.6	26.5
C[Si](C)(C)/C=C/CN1C(=O)CCC1O (stereo not given)						> 100 µM		> 100 µM		> 100 µM		> 100 µM		> 100 µM	> 100		> 100			
CC1(C)OCN(c2ccc(Cl)cc2)Cn2c1nc1ccccc12		> 100 µM				> 100 µM		> 100 µM		> 100 µM		> 100 µM		> 100 µM	> 100		> 100	> 100		
O=Nc1c(O)ccc2ccccc12	2.03	10.2 µM	2.45	8.24	2060	4.25 µM	3490	16.8 µM	2.64	7.21 µM	2.28	7.04 µM	3850	15.9 µM	28.9			10.5	3.5	15.3
COc1ccc(/C=C2\N=C3SC=C(N)N3C2=O)cc1	1.05	3.63 µM	1.19	5.56	314	1.5 µM	1560	17.3 µM	0.492	2.99 µM	1.44	10.4 µM	817	3.98 µM	11.7			2.71	1.2	2.16
COc1ccccc1-n1c(SCc2cc(OC)c(OC)c(OC)c2)nc2ccc(Cl)cc2c1=O	4.24	> 100 µM	5.81	> 100	2610	> 100 µM	1020	> 100 µM	3.71	> 100 µM	8.86	> 100 µM	1460	> 100 µM	> 100			> 100	9.12	7.76
COc1ccc(O)c2c1C(=O)CCCC2=O						> 100 µM		> 100 µM		> 100 µM		> 100 µM		> 100 µM	> 100		> 100			
c1ccc(-c2nc(N3CCNCC3)c3nc(-c4ccccc4)oc3n2)cc1	1.67	3.2 µM	1.87	4.11	1810	3.86 µM	1440	4.22 µM	2.08	4.64 µM			1660	3.18 µM	3.71	1.78	3.39	3.33	1.86	2
CC(=O)Nc1ccc(-c2nnc(SCC(=O)Nc3ccc(C)cc3)o2)cc1						33 µM		> 100 µM		74.7 µM		70.8 µM		30 µM	> 100					
O=c1cccccc1NCCCCNc1cccccc1=O						> 100 µM		> 100 µM		> 100 µM		> 100 µM		> 100 µM	> 100		> 100			
CC[C@@H]1OC2(C)CC(S(=O)(=O)c3ccccc3)CC1O2 (stereo not given in full)						> 100 µM		> 100 µM		> 100 µM		> 100 µM		> 100 µM	> 100		> 100			
COc1cc(C2C(C(=O)Nc3ccccc3)=C(C)NC(C)=C2C(=O)Nc2ccccc2)ccc1O								> 100 µM		> 100 µM		85.1 µM		> 100 µM			> 100			
O=c1c([Se]c2coc3ccccc3c2=O)coc2ccccc12						32.5 µM		> 100 µM		56.3 µM		25.5 µM		30.8 µM	29.8		33.6			
